Source: PubChem BioAssay AID256 (DTP/NCI, 2004)
Several values for one entry are separate records, joined by “and”; a condition that tells them apart may be missing. Equal values may be shown once. Toxic doses and inconclusive results are not listed. Rule for the calls: active = survival T/C of 150% or more; inactive = T/C below 125% in these data.

Tested on: CD2F1 mice, L1210 leukemia ip, survival T/C
Assay: NCI In Vivo Anticancer Drug Screen. Data for tumor model L1210 Leukemia (intraperitoneal) in CD2F1 (CDF1) mice
Settings: higher = longer survival
Procedure, shortened: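 Ratio T/C, where T is the treated-group value and C the vehicle-dosed control value, from mice implanted with a transplantable tumor.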

[1] = endpoint: mean survival time, dose: 100.0 mg/kg/injection, schedule: Q04DX002 (ip), vehicle: saline
[2] = endpoint: mean survival time, dose: 200.0 mg/kg/injection, schedule: Q04DX002 (ip), vehicle: saline
[3] = endpoint: mean survival time, dose: 400.0 mg/kg/injection, schedule: Q04DX002 (ip), vehicle: saline
[4] = endpoint: mean survival time, dose: 100.0 mg/kg/injection, schedule: Q04DX002 (ip), vehicle: saline with Tween-80
[5] = endpoint: mean survival time, dose: 100.0 mg/kg/injection, schedule: Q04DX003 (ip), vehicle: saline with Tween-80
[6] = endpoint: mean survival time, dose: 100.0 mg/kg/injection, schedule: Q04DX003 (ip), vehicle: saline
[7] = endpoint: mean survival time, dose: 200.0 mg/kg/injection, schedule: Q04DX003 (ip), vehicle: saline
[8] = endpoint: mean survival time, dose: 400.0 mg/kg/injection, schedule: Q04DX003 (ip), vehicle: saline
[9] = endpoint: mean survival time, dose: 50.0 mg/kg/injection, schedule: Q01DX001 (ip), vehicle: saline
[10] = endpoint: mean survival time, dose: 100.0 mg/kg/injection, schedule: Q01DX001 (ip), vehicle: saline

Measured: T/C

OCC1OC(n2cnc3c2NC=NC[C@H]3O)CC1O (some centres not stated)
inactive: endpoint: mean survival time, dose: 0.13 mg/kg/injection, schedule: Q01DX005 (ip), vehicle: water 93 % of control | endpoint: mean survival time, dose: 0.13 mg/kg/injection, schedule: Q01DX009 (ip), vehicle: water 95 % of control | endpoint: mean survival time, dose: 0.2 mg/kg/injection, schedule: Q03HX024 (ip), vehicle: saline with Tween-80 102 % of control | endpoint: mean survival time, dose: 0.25 mg/kg/injection, schedule: Q01DX005 (ip), vehicle: water 108 % of control | endpoint: mean survival time, dose: 0.25 mg/kg/injection, schedule: Q01DX009 (ip), vehicle: water 101 % of control | endpoint: mean survival time, dose: 0.25 mg/kg/injection, schedule: Q04DX002 (ip), vehicle: water 94 % of control | endpoint: mean survival time, dose: 0.25 mg/kg/injection, schedule: Q04DX003 (ip), vehicle: water 99 % of control | endpoint: mean survival time, dose: 0.3 mg/kg/injection, schedule: Q03HX024 (ip), vehicle: saline with Tween-80 101 % of control | endpoint: mean survival time, dose: 0.4 mg/kg/injection, schedule: Q03HX024 (ip), vehicle: saline with Tween-80 115 % of control and 103 % of control | endpoint: mean survival time, dose: 0.5 mg/kg/injection, schedule: Q03HX024 (ip), vehicle: saline with Tween-80 116 % of control | endpoint: mean survival time, dose: 0.5 mg/kg/injection, schedule: Q04DX002 (ip), vehicle: water 101 % of control | endpoint: mean survival time, dose: 0.5 mg/kg/injection, schedule: Q04DX003 (ip), vehicle: water 96 % of control | endpoint: mean survival time, dose: 0.6 mg/kg/injection, schedule: Q03HX024 (ip), vehicle: saline with Tween-80 110 % of control | endpoint: mean survival time, dose: 0.75 mg/kg/injection, schedule: Q03HX024 (ip), vehicle: saline with Tween-80 111 % of control | endpoint: median survival time, dose: 0.1 mg/kg/injection, schedule: Q01DX009 (ip), vehicle: saline 101 % of control | endpoint: median survival time, dose: 0.13 mg/kg/injection, schedule: Q01DX009 (ip), vehicle: saline 102 % of control | endpoint: median survival time, dose: 0.21 mg/kg/injection, schedule: Q01DX009 (ip), vehicle: saline 113 % of control | endpoint: median survival time, dose: 0.25 mg/kg/injection, schedule: Q01DX009 (ip), vehicle: saline 104 % of control and 108 % of control | endpoint: median survival time, dose: 0.25 mg/kg/injection, schedule: Q03HX012 (ip), vehicle: saline 112 % of control | endpoint: median survival time, dose: 0.3 mg/kg/injection, schedule: Q01DX009 (ip), vehicle: saline 104 % of control | endpoint: median survival time, dose: 0.5 mg/kg/injection, schedule: Q01DX009 (ip), vehicle: saline 104 % of control and 110 % of control | endpoint: median survival time, dose: 0.5 mg/kg/injection, schedule: Q03HX012 (ip), vehicle: saline 113 % of control | endpoint: median survival time, dose: 1.0 mg/kg/injection, schedule: Q01DX009 (ip), vehicle: saline 108 % of control | endpoint: median survival time, dose: 2.0 mg/kg/injection, schedule: Q01DX009 (ip), vehicle: saline 102 % of control | endpoint: median survival time, dose: 3.0 mg/kg/injection, schedule: Q01DX005 (ip), vehicle: saline 95 % of control | endpoint: median survival time, dose: 3.0 mg/kg/injection, schedule: Q01DX009 (ip), vehicle: saline 109 % of control | endpoint: median survival time, dose: 4.0 mg/kg/injection, schedule: Q01DX005 (ip), vehicle: saline 100 % of control | endpoint: median survival time, dose: 5.0 mg/kg/injection, schedule: Q01DX005 (ip), vehicle: saline 97 % of control | endpoint: median survival time, dose: 6.0 mg/kg/injection, schedule: Q01DX005 (ip), vehicle: saline 97 % of control | endpoint: median survival time, dose: 7.0 mg/kg/injection, schedule: Q01DX005 (ip), vehicle: saline 104 % of control | endpoint: median survival time, dose: 10.0 mg/kg/injection, schedule: Q01DX009 (ip), vehicle: saline 109 % of control

CN(C(=S)S(=O)(=O)C12CC3CC(CC(C3)C1)C2)c1ccccc1
inactive: endpoint: mean survival time, dose: 3.12 mg/kg/injection, schedule: Q01DX009 (ip), vehicle: Klucel (hydroxypropylcellulose) (HPC) 94 % of control and 96 % of control and 105 % of control | endpoint: mean survival time, dose: 6.25 mg/kg/injection, schedule: Q01DX009 (ip), vehicle: Klucel (hydroxypropylcellulose) (HPC) 100 % of control (2×) and 105 % of control | endpoint: mean survival time, dose: 12.5 mg/kg/injection, schedule: Q01DX009 (ip), vehicle: Klucel (hydroxypropylcellulose) (HPC) 100 % of control and 102 % of control and 107 % of control | endpoint: mean survival time, dose: 25.0 mg/kg/injection, schedule: Q01DX009 (ip), vehicle: Klucel (hydroxypropylcellulose) (HPC) 98 % of control and 102 % of control and 107 % of control | endpoint: mean survival time, dose: 50.0 mg/kg/injection, schedule: Q01DX009 (ip), vehicle: Klucel (hydroxypropylcellulose) (HPC) 96 % of control and 104 % of control and 105 % of control | endpoint: mean survival time, dose: 100.0 mg/kg/injection, schedule: Q01DX009 (ip), vehicle: Klucel (hydroxypropylcellulose) (HPC) 117 % of control and 96 % of control and 102 % of control

Cc1ccc(C(=O)c2ccc(C)cc2)cc1
inactive: endpoint: mean survival time, dose: 100.0 mg/kg/injection, schedule: Q01DX009 (ip), vehicle: saline 90 % of control | [1] 93 % of control | endpoint: mean survival time, dose: 200.0 mg/kg/injection, schedule: Q01DX009 (ip), vehicle: saline 93 % of control | [2] 95 % of control | endpoint: mean survival time, dose: 400.0 mg/kg/injection, schedule: Q01DX009 (ip), vehicle: saline 93 % of control | [3] 95 % of control

CC(C)(C)/[N+]([O-])=C/Cc1ccccc1
inactive: endpoint: mean survival time, dose: 25.0 mg/kg/injection, schedule: Q04DX002 (ip), vehicle: saline with Tween-80 97 % of control | endpoint: mean survival time, dose: 50.0 mg/kg/injection, schedule: Q04DX002 (ip), vehicle: saline with Tween-80 110 % of control | [4] 110 % of control

O=C1CC(=O)N2C=CC=CC2=N1
inactive: [1] 122 % of control | [2] 96 % of control | [3] 92 % of control

CC1CC(C(=O)O)C(S(N)(=O)=O)C1 (configuration not stated)
inactive: endpoint: mean survival time, dose: 50.0 mg/kg/injection, schedule: Q04DX002 (ip), vehicle: saline 97 % of control | [1] 108 % of control | [2] 108 % of control

CCCCOc1ccc(/C=N\N=C\c2ccc(OCCCC)cc2)cc1
inactive: [5] 88 % of control | endpoint: mean survival time, dose: 200.0 mg/kg/injection, schedule: Q04DX003 (ip), vehicle: saline with Tween-80 91 % of control | endpoint: mean survival time, dose: 400.0 mg/kg/injection, schedule: Q04DX003 (ip), vehicle: saline with Tween-80 86 % of control

Cc1ccc(C)c(C(C)NC2=NCCO2)c1 (configuration not stated)
inactive: endpoint: mean survival time, dose: 12.5 mg/kg/injection, schedule: Q04DX003 (ip), vehicle: saline with Tween-80 94 % of control | endpoint: mean survival time, dose: 25.0 mg/kg/injection, schedule: Q04DX003 (ip), vehicle: saline with Tween-80 93 % of control | endpoint: mean survival time, dose: 50.0 mg/kg/injection, schedule: Q04DX003 (ip), vehicle: saline with Tween-80 86 % of control and 92 % of control | [5] 91 % of control

CCOC1OC(C(O)CO)C(O)C(O)C1O (configuration not stated)
inactive: [6] 101 % of control | [7] 103 % of control | [8] 101 % of control

O=C1C=C(O)c2ccccc2C1=O
inactive: endpoint: mean survival time, dose: 25.0 mg/kg/injection, schedule: Q01DX001 (ip), vehicle: saline 106 % of control | [9] 106 % of control | [10] 102 % of control

COCCOC(C)C(=O)C(O)S(=O)(=O)O (configuration not stated)
inactive: [9] 98 % of control | [10] 102 % of control | [6] 103 % of control | endpoint: mean survival time, dose: 200.0 mg/kg/injection, schedule: Q01DX001 (ip), vehicle: saline 100 % of control | [7] 103 % of control | endpoint: mean survival time, dose: 400.0 mg/kg/injection, schedule: Q01DX001 (ip), vehicle: saline 100 % of control | [8] 103 % of control

CNC1C(CO)OC(n2cnc3c(N)ncnc32)C1O (configuration not stated)
inactive: endpoint: mean survival time, dose: 75.0 mg/kg/injection, schedule: Q01DX001 (ip), vehicle: saline 106 % of control | endpoint: mean survival time, dose: 150.0 mg/kg/injection, schedule: Q01DX001 (ip), vehicle: saline 103 % of control | endpoint: mean survival time, dose: 300.0 mg/kg/injection, schedule: Q01DX001 (ip), vehicle: saline 109 % of control

Cc1ccc(S(=O)(=O)Oc2ccc(Br)cc2)cc1
inactive: [4] 96 % of control | endpoint: mean survival time, dose: 200.0 mg/kg/injection, schedule: Q04DX002 (ip), vehicle: saline with Tween-80 86 % of control
